Values quoted from earlier work in US20050095286A1, “Extended release compositions” (Fabre Kramer Pharmaceuticals, Inc., priority 2003, published 2005).

Key:
[1] = target: T1, 5HT1a-receptors (Homo sapiens, UniProt P08908); settings: background statement
T1 sequence (P08908 1-422): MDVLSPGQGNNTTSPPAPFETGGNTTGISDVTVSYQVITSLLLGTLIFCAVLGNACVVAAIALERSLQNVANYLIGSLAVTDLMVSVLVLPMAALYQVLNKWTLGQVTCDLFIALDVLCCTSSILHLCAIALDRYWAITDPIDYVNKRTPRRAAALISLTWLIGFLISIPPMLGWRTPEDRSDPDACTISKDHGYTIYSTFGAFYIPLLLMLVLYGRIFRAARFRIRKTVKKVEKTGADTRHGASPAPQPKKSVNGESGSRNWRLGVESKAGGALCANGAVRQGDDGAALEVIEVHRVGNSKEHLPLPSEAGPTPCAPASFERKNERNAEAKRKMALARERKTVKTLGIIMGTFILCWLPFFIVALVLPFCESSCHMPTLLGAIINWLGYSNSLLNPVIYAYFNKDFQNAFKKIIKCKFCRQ

[2] = background statement
[3] = target: T2, 5-HT1A receptor binding sites (Homo sapiens, UniProt P08908); settings: background statement, U.S. Pat. No. 5,010,078
T2 sequence (P08908 1-422): T1 sequence (P08908 1-422)

[4] = target: D2-receptor binding sites (Homo sapiens, UniProt P14416); settings: background statement, U.S. Pat. No. 5,010,078
Sequence of D2-receptor binding sites (P14416 whole entry): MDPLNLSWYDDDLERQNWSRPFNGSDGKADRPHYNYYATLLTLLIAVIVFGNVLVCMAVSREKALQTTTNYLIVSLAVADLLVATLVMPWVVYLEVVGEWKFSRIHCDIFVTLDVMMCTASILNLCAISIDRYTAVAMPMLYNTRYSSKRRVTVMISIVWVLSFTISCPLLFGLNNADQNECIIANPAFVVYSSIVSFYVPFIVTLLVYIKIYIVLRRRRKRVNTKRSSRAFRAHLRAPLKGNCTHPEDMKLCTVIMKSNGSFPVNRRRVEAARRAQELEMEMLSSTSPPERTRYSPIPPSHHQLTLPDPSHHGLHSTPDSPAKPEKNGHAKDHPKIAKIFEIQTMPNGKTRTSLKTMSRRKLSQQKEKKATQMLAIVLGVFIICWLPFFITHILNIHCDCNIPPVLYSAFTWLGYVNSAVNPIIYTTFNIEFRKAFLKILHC

affinity for the 5-HT1A receptor binding site [3] | selectivity at the 5-HT1A and 5-HT2 versus D2 receptor binding sites [3] | affinity for the D2-receptor binding site [4] | Compound | affinity to 5HT1a-receptors [1] | therapeutic index [2]
 |  |  | Cl.O=c1c(CO)coc2cc(OCCCN3CCC(c4noc5cc(F)ccc45)CC3)ccc12 [abaperidone] | high affinity | high therapeutic index
high affinity | demonstrated selectivity | high affinity | O=C(NCCN1CCN(c2ncccn2)CC1)[C@]12C[C@H]3C[C@@H](C[C@H](C3)C1)C2 [adatanserin] |  | 
